What all share (type): cell-based
In one test the target is T1, K2P2.1 (TREK-1) (Mus musculus, UniProt P97438).
T1 construct: expressed in transfected cells; host or cells: Xenopus laevis oocytes injected with mRNA (pGEMHE/pMO vector)
T1 sequence (P97438 1-411 isoform P97438-2): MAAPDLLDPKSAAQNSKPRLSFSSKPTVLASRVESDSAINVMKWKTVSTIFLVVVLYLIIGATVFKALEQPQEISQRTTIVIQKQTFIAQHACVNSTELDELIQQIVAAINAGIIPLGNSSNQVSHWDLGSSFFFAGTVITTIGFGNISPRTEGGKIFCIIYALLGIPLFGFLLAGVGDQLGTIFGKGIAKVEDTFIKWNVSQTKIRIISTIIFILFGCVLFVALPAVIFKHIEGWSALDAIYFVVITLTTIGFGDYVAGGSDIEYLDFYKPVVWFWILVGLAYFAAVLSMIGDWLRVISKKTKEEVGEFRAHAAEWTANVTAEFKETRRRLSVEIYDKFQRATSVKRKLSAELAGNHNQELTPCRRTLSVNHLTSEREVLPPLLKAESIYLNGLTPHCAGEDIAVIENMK
The test is described as follows: Two-electrode voltage clamp (TEVC) in Xenopus oocytes. As to conditions: for Fold-activation (I activator/I control): currents at 0 mV. The source says:
(§1) Mouse K2P2.1 (TREK-1) (Genbank accession number: NP_034737.2), mouse K2P10.1 (TREK-2) (NM_001316665.1), mouse K2P4.1 (TRAAK) (NM_008431.3), human K2P4.1 (TRAAK) (NM_033310.2) and mouse K2P18.1(TRESK) (NM_207261.3) were used for this study. Point mutations were introduced by site-directed mutagenesis using custom primers and confirmed by sequencing before use. For studies using Xenopus oocytes, K2P channels were subcloned into a previously reported pGEMHE/pMO vector (46). For expression in HEK293 cells, mouse K2P2.1 (TREK-1) and mutants were expressed from a previously described pIRES2-EGFP vector in HEK293 cells (46,47). K2P2.1 (TREK-1) tandems were constructed by connecting the open reading frames for the individual subunits with a linker encoding the […] (SEQ ID NO: 19) sequence. Tandems used for HEK293 cells included an N-terminal HA tag ([…] (SEQ ID NO: 20)) on the first subunit.
(§2) Xenopus laevis oocytes were harvested according to UCSF IACUC Protocol AN129690 and digested using collagenase (Worthington Biochemical Corporation, #LS004183, 0.8-1.0 mg/mL) in Ca^21-free ND96 (96 mM NaCl, 2 mM KCl, 3.8 mM MgCl2, 5 mM HEPES pH 7.4) immediately post-harvest, as previously reported (31,33). Oocytes were maintained at 18° C. in ND96 (96 mM NaCl, 2 mM KCl, 1.8 mM CaCl2, 2 mM MgCl2, 5 mM HEPES pH 7.4) supplemented with antibiotics (100 units mL^−1 penicillin, 100 μg mL^−1 streptomycin, 50 μg mL^−1 gentimycin) and used for experiments within one week of harvest.
(§3) Defolliculated stage V-VI oocytes were microinjected with 0.5-36 ng mRNA and currents were recorded within 16-48 h hours of injection.
(§4) For recordings, oocytes were impaled with borosilicate recording microelectrodes (0.4-2.0 MΩ resistance) backfilled with 3 M KCl and were subjected to constant perfusion of ND96 at a rate of 3 ml min^−1. Recording solutions containing K2P activators were prepared immediately prior to use from DMSO stocks (20-100 mM), with final DMSO concentrations of 0.1%. Currents were evoked from a −80 mV holding potential followed by a 300 ms ramp from −150 mV to +50 mV. Data were recorded using a GeneClamp 500B amplifier (MDS Analytical Technologies) controlled by pCLAMP8 software (Molecular Devices), and digitized at 1 kHz using Digidata 1332 Å digitizer (MDS Analytical Technologies). For each recording, control solution (ND96) was perfused over a single oocyte until current was stable before switching to solutions containing the test compounds at various concentrations. Representative traces and dose response plots were generated in GraphPad Prism 9.
For orientation: In two-electrode clamp one electrode senses voltage and the other passes current.

The target of a further test is T2, A286F K2P2.1 (TREK-1) (Mus musculus, UniProt P97438, A301F).
T2 construct: expressed in transfected cells; host or cells: Xenopus laevis oocytes injected with mRNA
T2 sequence (P97438 1-411 isoform P97438-2 A286F): T1 sequence (P97438 1-411 isoform P97438-2) with A286F
The test is described as follows: TEVC in Xenopus oocytes, attenuated channels. The note with it: 20 μM; sequential addition of ML335, CAT335, BL-1249; 0 mV.
From the text: as §1, §2, §3, §4

The target in the next test is T3, G171F K2P2.1 (TREK-1) (Mus musculus, UniProt P97438, G186F).
T3 construct: expressed in transfected cells; host or cells: Xenopus laevis oocytes injected with mRNA
T3 sequence (P97438 1-411 isoform P97438-2 G171F): T1 sequence (P97438 1-411 isoform P97438-2) with G171F
The test is described as follows: TEVC in Xenopus oocytes, attenuated channels. The note with it: 20 μM; sequential addition of ML335, CAT335, BL-1249; 0 mV.
From the text: as §1, §2, §3, §4

Molecules are shown by their SMILES. Changes are numbered by the printed parent chain.

We go through three compounds from US20260098008A1, “COVALENT, CHEMOGENETIC ACTIVATORS FOR K2P POTASSIUM CHANNELS AND USES THEREOF” (THE REGENTS OF THE UNIVERSITY OF CALIFORNIA, priority 2022, published 2026).

The EC50 is the concentration that produces a half-maximal response. High values mean weaker potency, low ones greater potency.

Consider `O=C(NCc1ccc(Cl)cc1Cl)c1ccc(N2C(=O)C=CC2=O)cc1` [CAT335], for which the “Fold-activation after compound washout” value at K2P2.1 (TREK-1) (20 μM, after washout, Xenopus oocytes) turned out to be 4.0 ± 0.6 fold. The “Fold-activation (I activator/I control)” value at K2P2.1 (TREK-1) (20 μM, Xenopus oocytes) is listed as 2.0±0.2 fold; at A286F K2P2.1 (TREK-1) it was “insensitive”; on G171F K2P2.1 (TREK-1), “insensitive”.

`c1ccc(-c2nn[nH]n2)c(Nc2cccc3c2CCCC3)c1` [BL-1249, reference compound]: the “Fold-activation (I activator/I control)” value turned out to be 19.4±1.3 fold on A286F K2P2.1 (TREK-1) and 3.8±0.5 fold on G171F K2P2.1 (TREK-1).

Take `CS(=O)(=O)Nc1ccc(C(=O)NCc2ccc(Cl)cc2Cl)cc1` [ML335, reference compound]: at K2P2.1 (TREK-1) (20 μM, Xenopus oocytes), the “Reversibility of activation on washout” value is reported as “immediate reversal”. Moreover, the “Fold-activation (I activator/I control)” value at K2P2.1 (TREK-1) (20 μM, Xenopus oocytes) is listed as 6.5 fold; on A286F K2P2.1 (TREK-1), 1-1.8 fold; on G171F K2P2.1 (TREK-1) it was 1-1.8 fold. The “Emax (IML335/Icontrol)” value on K2P2.1 (TREK-1) (TEVC at 0 mV) came to 15.8±1.3 fold activation. Further, at K2P2.1 (TREK-1) (TEVC at 0 mV, normalized to initial currents), the half-maximal effective concentration (EC50) was 24 ± 4 µM.
